Assay: THC in blood, eccrine sweat, apocrine sweat and urine after smoking a THC containing product
Type: in vivo, human
Description: Samples of apocrine and eccrine sweat were collected prior to oral consumption of a THC containing product. No THC was detected in either sample. The test individual then orally consumed (smoked) a quantity of a THC containing product. Small quantities (0.5 cc) of apocrine and eccrine sweat was separately collected over a period of 30 minutes under ambient conditions to induce sweating. When the collected samples were tested using standard laboratory tests for THC metabolites […].

Structure (SMILES): CCCCCc1cc(O)c2c(c1)OC(C)(C)[C@@H]1CCC(C)=C[C@@H]21 [Delta 9 THC, delta nine tetrahydrocannibinol]
- Delta 9 THC concentration in apocrine sweat (apocrine sweat (0.5 cc) collected over 30 minutes after smoking a THC containing product): 107 nanograms/ml
- Delta 9 THC concentration in blood (blood, test individual after smoking a THC containing product, standard laboratory test for THC): 21 nanograms/ml
- Delta 9 THC concentration in eccrine sweat (eccrine sweat (0.5 cc) collected over 30 minutes after smoking a THC containing product): 4 nanograms/ml
- Quantity of THC in apocrine sweat relative to blood (ratio apocrine sweat / blood): 5.1 times
- Quantity of THC in apocrine sweat relative to eccrine sweat (ratio apocrine sweat / eccrine sweat): 26.75 times
- Delta 9 THC concentration in urine (urine, after smoking a THC containing product): undetect-

From US20030199743A1, “Screening test and procedure using apocrine sweat” (priority 2000, published 2003)
